The values that follow come from patent US20240246954A1, “COMPOSITIONS AND METHODS FOR INHIBITING KRAS” (TheRas, Inc., priority 2021, published 2024).

Usually IC50 stands for the concentration that inhibits the measured activity by half. Usually Kd stands for a measure of binding affinity in units of concentration.

In assay [1] the target is T1, Avi-KRAS G12D (1-169) GppNHp/RAF1 RBD-3×FLAG (52-151) (Homo sapiens, UniProt P01116, G12D).
T1 construct: Avi-KRAS G12D (1-169) GppNHp
Put plainly: HTRF Raf1-KRAS G12D-GppNHp disruption assay. To be noted: 1 h incubation. The format is biochemical. Put shortly:
(§1)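 HTRF read-out (320 nm excitation, 615 nm emission) after two 1 h room-temperature incubations, first with protein mix, then detection reagents. Ten-point dilution series starting at 100 μM; results given as % activity relative to DMSO at 100%.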
On the technique in general: In TR-FRET formats the signal depends on donor and acceptor labels being close together.

In another assay the target is GDP KRAS G12D (Homo sapiens, UniProt P01116, G12D). Kind of assay: SPR binding affinity, GDP KRAS G12D. Conditions: GDP-bound KRAS G12D. (Surface plasmon resonance follows binding to a sensor surface in real time, without labels.)
Assay [2] relates to pERK in GP2d cells (KRAS G12D). Put plainly: Cell-based pERK HTRF assay. Conditions: GP2d, 1 h, 60 min incubation. Summed up: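 GP2d cells (DMEM, 10% FBS) treated 60 min with compounds in a 9-point half-log series from 1 μM top concentration, 0.25% DMSO. Lysates read for pERK by HTRF (d2/Eu cryptate antibodies) after 4–24 h at room temperature; emission at 615 nm.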
For another assay, the target named is GppNHp KRAS G12D (Homo sapiens, UniProt P01116, G12D). Put plainly: SPR binding affinity, GppNHp KRAS G12D. Conditions: GppNHp-bound KRAS G12D.
The target of assay [3] is T2, Avi-KRAS G12D/Q25A (1-169) GppNHp/3×FLAG-PI3KCA (157-299) (Homo sapiens, UniProt P01116, G12D/Q25A).
T2 construct: Avi-KRAS G12D/Q25A (1-169) GppNHp
Put plainly: HTRF PI3KCA-KRAS G12D/Q25A-GppNHp disruption assay. The assay is classed as biochemical. Conditions: 1 h incubation. Put shortly:
as §1

T2 sequence (P01116 1-169 isoform P01116-2 G12D/Q25A limits assumed): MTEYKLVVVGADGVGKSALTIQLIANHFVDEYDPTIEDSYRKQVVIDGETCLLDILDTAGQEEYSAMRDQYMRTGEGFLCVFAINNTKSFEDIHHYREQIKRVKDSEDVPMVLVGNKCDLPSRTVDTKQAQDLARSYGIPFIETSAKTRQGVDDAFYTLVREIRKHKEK
Chain of GDP KRAS G12D (P01116 1-188 isoform P01116-2 G12D): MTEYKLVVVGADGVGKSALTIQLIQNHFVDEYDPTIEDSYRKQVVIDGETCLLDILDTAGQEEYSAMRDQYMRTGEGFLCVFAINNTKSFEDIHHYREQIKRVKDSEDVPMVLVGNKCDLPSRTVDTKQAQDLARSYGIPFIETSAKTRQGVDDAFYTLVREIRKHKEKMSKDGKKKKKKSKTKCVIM
Chain of GppNHp KRAS G12D (P01116 1-188 isoform P01116-2 G12D): as above
T1 sequence (P01116 1-169 isoform P01116-2 G12D limits assumed): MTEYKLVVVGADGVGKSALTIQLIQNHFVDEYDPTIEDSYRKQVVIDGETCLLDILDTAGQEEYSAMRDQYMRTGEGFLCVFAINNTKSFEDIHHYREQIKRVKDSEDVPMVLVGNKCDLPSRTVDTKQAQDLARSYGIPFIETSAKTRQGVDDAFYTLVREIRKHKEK

In the case of `Nc1nc2c(-c3c(C(F)(F)F)cc4c(N[C@@H]5CCNC5)nc(OC[C@@]56CCCN5C[C@H](F)C6)nc4c3F)ccc(F)c2s1` (atropisomer, axis not shown) [Compound 248], the values for the half-maximal inhibitory concentration (IC50) in assay [1], in assay [2] and in assay [3] were ≤ 100 nM, > 1000 nM and 100 to 1000 nM, respectively. The equilibrium dissociation constant (Kd) on GDP KRAS G12D and on GppNHp KRAS G12D was ≤ 100 nM each time.
In the case of `N#Cc1c(N)sc2c(F)ccc(-c3c(Cl)cc4c(N5C[C@H]6CC[C@@H](C5)N6)nc(OC[C@@]56CCCN5C[C@H](F)C6)nc4c3F)c12` [Compound 260, 4-(4-((1R,5S)-3,8-diazabicyclo[3.2.1]octan-3-yl)-6-chloro-8-fluoro-2-(((2R,7aS)-2-fluorotetrahydro-1H-pyrrolizin-7a(5H)-yl)methoxy)quinazolin-7-yl)-2-amino-7-fluorobenzo[b]thiophene-3-carbonitrile], the values for the half-maximal inhibitory concentration (IC50) in assay [1], in assay [2] and in assay [3] were ≤ 100 nM, ≤ 100 nM and 100 to 1000 nM, respectively. Further, the dissociation constant (Kd) on GDP KRAS G12D and on GppNHp KRAS G12D was ≤ 100 nM in each case.
